According to paper PMC3720735 (PLoS ONE, 2013):

Key:
[1] = molecular target: T1, α7-nicotinic acetylcholine receptor (Homo sapiens, UniProt P36544); assay: two-electrode voltage clamp of ACh currents in Xenopus oocytes expressing the human receptor; format: cell-based
T1 construct: gene CHRNA7

α7-nACh receptor = molecular target: T2, α7-nACh receptor (Rattus norvegicus, UniProt Q05941); format: cell-based
T2 construct: gene Chrna7
T2 sequence (Q05941 23-502): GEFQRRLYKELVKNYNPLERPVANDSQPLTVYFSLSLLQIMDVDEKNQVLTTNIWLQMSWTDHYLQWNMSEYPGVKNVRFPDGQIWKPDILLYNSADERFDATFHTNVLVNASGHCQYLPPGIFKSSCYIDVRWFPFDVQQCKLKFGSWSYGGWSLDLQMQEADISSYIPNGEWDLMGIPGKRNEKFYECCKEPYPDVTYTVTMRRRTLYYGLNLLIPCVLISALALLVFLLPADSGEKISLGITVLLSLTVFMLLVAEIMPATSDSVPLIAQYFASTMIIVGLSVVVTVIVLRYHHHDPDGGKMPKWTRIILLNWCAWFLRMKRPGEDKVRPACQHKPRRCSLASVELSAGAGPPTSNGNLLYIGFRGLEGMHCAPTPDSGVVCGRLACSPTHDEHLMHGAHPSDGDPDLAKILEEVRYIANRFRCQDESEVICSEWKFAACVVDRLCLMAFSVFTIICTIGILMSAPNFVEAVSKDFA

T1 sequence (P36544 23-502): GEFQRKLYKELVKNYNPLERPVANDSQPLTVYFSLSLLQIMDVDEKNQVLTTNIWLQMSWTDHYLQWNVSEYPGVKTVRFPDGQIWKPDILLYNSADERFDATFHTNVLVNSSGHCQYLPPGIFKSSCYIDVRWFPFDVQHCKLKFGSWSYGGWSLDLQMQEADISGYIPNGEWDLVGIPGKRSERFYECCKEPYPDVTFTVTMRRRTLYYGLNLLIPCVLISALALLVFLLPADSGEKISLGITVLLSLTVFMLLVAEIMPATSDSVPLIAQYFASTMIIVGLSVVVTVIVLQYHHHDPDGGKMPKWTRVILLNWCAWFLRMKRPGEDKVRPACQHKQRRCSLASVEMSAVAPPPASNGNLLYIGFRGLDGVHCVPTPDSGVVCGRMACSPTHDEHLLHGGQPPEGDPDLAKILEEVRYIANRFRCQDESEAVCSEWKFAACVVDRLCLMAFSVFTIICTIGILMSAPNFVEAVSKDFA

Structure (SMILES)	IC50 [1] [µM]	GCaMP5G Ca2+ imaging in PC12 cells (endogenous receptor), 10 μM, blocked by α-bu (α7-nACh receptor)
CC1CCC(C(C)C)C(O)C1 (racemic) [menthol]	32.6 ± 2.3	–
O=C(N[C@H]1CN2CCC1CC2)c1ccc(Cl)cc1 [PNU282987]	–	activation of the α7-nACh receptor with nicotine or the selective α7-agonist PNU282987 (PNU) was associated with a significant increase
